The source of these data is patent US20250230172A1 (Vanqua Bio, Inc., priority 2021, published 2025).

Structures are written as SMILES. pEC50: −log10 of the molar value. Where only a bound is given, the exact number is not on record here.

As usually defined, the pEC50 is the negative decadic logarithm of the EC50, by convention in mol/L.

The target of the test is T1, GCase (Homo sapiens, UniProt P04062).
T1 construct: endogenous in cells; host or cells: HeLa cells
T1 sequence (P04062 40-536): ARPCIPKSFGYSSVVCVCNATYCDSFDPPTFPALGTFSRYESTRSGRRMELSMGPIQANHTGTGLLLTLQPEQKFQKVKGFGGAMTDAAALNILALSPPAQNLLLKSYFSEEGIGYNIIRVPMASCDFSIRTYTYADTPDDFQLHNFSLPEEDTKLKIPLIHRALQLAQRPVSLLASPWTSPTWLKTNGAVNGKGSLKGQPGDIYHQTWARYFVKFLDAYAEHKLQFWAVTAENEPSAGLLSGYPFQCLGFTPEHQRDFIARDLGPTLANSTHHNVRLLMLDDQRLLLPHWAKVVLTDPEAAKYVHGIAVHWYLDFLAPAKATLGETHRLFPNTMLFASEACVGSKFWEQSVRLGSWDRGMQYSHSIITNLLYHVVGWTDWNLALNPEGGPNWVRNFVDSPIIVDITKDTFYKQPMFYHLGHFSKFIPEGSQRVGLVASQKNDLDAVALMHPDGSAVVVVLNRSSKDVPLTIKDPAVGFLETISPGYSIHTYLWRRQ
Description: live cell PFB assay in HELA cells for activation of GCase. It is filed as cell-based. How it is done:
Exemplary compounds were evaluated for activation of GCase in a live cell PFB assay in HELA cells (essentially as described in Ysselstein et al., “LRRK2 kinase activity regulates lysosomal glucocerebrosidase in neurons derived from Parkinson's disease patients” Nature Communications (2019) 10:5570). […] EC50 ranges: A: <10 μM; B: >10-50 μM; C: >50-100 μM; D: >100 μM.
`FC(F)Cn1ncc2ncc(N[C@H]3C[C@@H]4CN(c5ccnc(C(F)(F)F)n5)C[C@@H]4C3)nc21` [Compound 87, 1-(2,2-difluoroethyl)-N-((3aR,5s,6aS)-2-(2-(trifluoromethyl)pyrimidin-4-yl)octahydrocyclopenta[c]pyrrol-5-yl)-1H-pyrazolo[3,4-b]pyrazin-6-amine] showed a pEC50 of over 5.00.

As for `FC(F)Cn1ncc2ncc(N[C@@H]3C[C@@H]4CN(c5cncc(C(F)(F)F)c5)C[C@@H]4C3)nc21` [Compound 52, (3aR,5S,6aS)—N-[1-(2,2-difluoroethyl)-1H-pyrazolo[3,4-b]pyrazin-6-yl]-2-[5-(trifluoromethyl)pyridin-3-yl]-octahydrocyclopenta[c]pyrrol-5-amine], the pEC50 is over 5.00.

`CN(c1cnc2cnn(CC(F)F)c2n1)[C@H]1C[C@@H]2CN(c3cncc(C(F)(F)F)c3)C[C@@H]2C1` [Compound 54, (3aR,5S,6aS)—N-[1-(2,2-difluoroethyl)-1H-pyrazolo[3,4-b]pyrazin-6-yl]-N-methyl-2-[5-(trifluoromethyl)pyridin-3-yl]-octahydrocyclopenta[c]pyrrol-5-amine] gave a pEC50 of 4.30 to 5.00.

Turning to `O=C(c1ccc2ccn(CC3COC3)c2c1)N1CC[C@@H]2CN(c3cc(C(F)(F)F)ccn3)C[C@@H]2C1` (racemic) [Compound 9, rac-6-[(3aR,7aS)-2-[4-(trifluoromethyl)pyridin-2-yl]-octahydro-1H-pyrrolo[3,4-c]pyridine-5-carbonyl]-1-[(oxetan-3-yl)methyl]-1H-indole], the pEC50 is 4.30 to 5.00.

For `FC(F)Cn1ncc2ncc(N3C[C@@H]4CN(c5cccnc5C(F)(F)F)C[C@@H]4C3)nc21` [Compound 49, rac-3-[(3aR,6aS)-5-[1-(2,2-difluoroethyl)-1H-pyrazolo[3,4-b]pyrazin-6-yl]-octahydropyrrolo[3,4-c]pyrrol-2-yl]-2-(trifluoromethyl)pyridine], the pEC50 is 4.30 to 5.00.

Regarding `FC(F)Cn1ncc2ncc(N3CC4CC(Oc5cccc(C(F)(F)F)n5)CC4C3)nc21` (stereo not drawn) [Compound 29, 2-({2-[1-(2,2-difluoroethyl)-1H-pyrazolo[3,4-b]pyrazin-6-yl]-octahydrocyclopenta[c]pyrrol-5-yl}oxy)-6-(trifluoromethyl)pyridine], the pEC50 was over 5.00.

`FC(F)Cn1ncc2ncc(N3C[C@H]4CCN(c5cnccc5C(F)(F)F)C[C@H]4C3)nc21` (racemic) [Compound 24, rac-3-[(3aR,7aR)-2-[1-(2,2-difluoroethyl)-1H-pyrazolo[3,4-b]pyrazin-6-yl]-octahydro-1H-pyrrolo[3,4-c]pyridin-5-yl]-4-(trifluoromethyl)pyridine] had a pEC50 of 4.30 to 5.00.

In turn, `COc1cnc(N2C[C@H]3C[C@H](Nc4cnc5cnn(CC(F)F)c5n4)C[C@H]3C2)cn1` [Compound 77, 1-(2,2-difluoroethyl)-N-((3aR,5s,6aS)-2-(5-methoxypyrazin-2-yl)octahydrocyclopenta[c]pyrrol-5-yl)-1H-pyrazolo[3,4-b]pyrazin-6-amine] gave a pEC50 of under 4.00.

`FC(F)Cn1ncc2ncc(N3CC[C@@H]4CN(c5ccc(C(F)(F)F)cn5)C[C@@H]4C3)nc21` (racemic) [Compound 8]: the pEC50 is over 5.00.

`FC(F)Cn1ncc2ncc(N3CC[C@@H]4CN(c5ncccc5C(F)(F)F)C[C@@H]4C3)nc21` (racemic) [Compound 5] had a pEC50 of over 5.00.

`FC(F)Cn1ncc2ncc(N3C[C@H]4CCN(c5ccnc(C(F)(F)F)c5)C[C@H]4C3)nc21` (racemic) [Compound 23, rac-4-[(3aR,7aR)-2-[1-(2,2-difluoroethyl)-1H-pyrazolo[3,4-b]pyrazin-6-yl]-octahydro-1H-pyrrolo[3,4-c]pyridin-5-yl]-2-(trifluoromethyl)pyridine] had a pEC50 of 4.30 to 5.00.

With `FC(F)Cn1ncc2ncc(N[C@H]3C[C@@H]4CN(c5nccnc5C(F)(F)F)C[C@@H]4C3)nc21` [Compound 80, 1-(2,2-difluoroethyl)-N-((3aR,5s,6aS)-2-(3-(trifluoromethyl)pyrazin-2-yl)octahydrocyclopenta[c]pyrrol-5-yl)-1H-pyrazolo[3,4-b]pyrazin-6-amine], the pEC50 is over 5.00.

Take `FC(F)Cn1ncc2ncc(N3CC[C@@H]4CN(c5cccnc5C(F)(F)F)C[C@@H]4C3)nc21` (racemic) [Compound 2, rac-3-[(3aR,7aS)-5-[1-(2,2-difluoroethyl)-1H-pyrazolo[3,4-b]pyrazin-6-yl]-octahydro-1H-pyrrolo[3,4-c]pyridin-2-yl]-2-(trifluoromethyl)pyridine]: the pEC50 was over 5.00.

Consider `FC(F)(F)c1ccnc(N2C[C@H]3CCN(c4cnc5cnn(C6COC6)c5n4)C[C@H]3C2)c1` (racemic) [Compound 1], for which the negative-log EC50 (pEC50) is over 5.00.

`FC(F)Cn1ncc2ncc(N3CC[C@H]4CN(c5cccc(C(F)(F)F)n5)C[C@H]43)nc21` (racemic) [Compound 59, rac-2-[(3aR,6aR)-1-[1-(2,2-difluoroethyl)-1H-pyrazolo[3,4-b]pyrazin-6-yl]-octahydropyrrolo[3,4-b]pyrrol-5-yl]-6-(trifluoromethyl)pyridine] had a pEC50 of 4.30 to 5.00.

For the compound `FC(F)Cn1ncc2ncc(N[C@H]3C[C@@H]4CN(c5cc(C(F)(F)F)ncn5)C[C@@H]4C3)nc21` [Compound 90, 1-(2,2-difluoroethyl)-N-((3aR,5s,6aS)-2-(6-(trifluoromethyl)pyrimidin-4-yl)octahydrocyclopenta[c]pyrrol-5-yl)-1H-pyrazolo[3,4-b]pyrazin-6-amine], the pEC50 is over 5.00.

`FC(F)Cn1ncc2ncc(N[C@H]3C[C@@H]4CN(c5cccc(C(F)(F)F)n5)C[C@@H]4C3)nc21` [Compound 34, (3aR,5R,6aS)—N-[1-(2,2-difluoroethyl)-1H-pyrazolo[3,4-b]pyrazin-6-yl]-2-[6-(trifluoromethyl)pyridin-2-yl]-octahydrocyclopenta[c]pyrrol-5-amine] gave a pEC50 of 4.30 to 5.00.

For the compound `FC(F)Cn1ncc2ncc(N[C@H]3C[C@@H]4CN(c5ncncc5C(F)(F)F)C[C@@H]4C3)nc21` [Compound 91, 1-(2,2-difluoroethyl)-N-((3aR,5s,6aS)-2-(5-(trifluoromethyl)pyrimidin-4-yl)octahydrocyclopenta[c]pyrrol-5-yl)-1H-pyrazolo[3,4-b]pyrazin-6-amine], the pEC50 was over 5.00.

In turn, `O=C(c1ccc2ccn(C3COC3)c2c1)N1CC[C@@H]2CN(c3cc(C(F)(F)F)ccn3)C[C@@H]2C1` (racemic) [Compound 16, rac-6-[(3aR,7aS)-2-[4-(trifluoromethyl)pyridin-2-yl]-octahydro-1H-pyrrolo[3,4-c]pyridine-5-carbonyl]-1-(oxetan-3-yl)-1H-indole] had a pEC50 of 4.30 to 5.00.

Regarding `FC(F)Cn1ncc2ncc(N[C@H]3CC[C@@H]4CN(c5cccnc5C(F)(F)F)C[C@@H]4C3)nc21` (single isomer, unassigned) [Compound 74], the negative logarithm of the EC50 (pEC50) is 4.30 to 5.00.

As to `FC(F)Cn1ncc2ncc(N3C[C@H]4CCN(c5cccc(C(F)(F)F)n5)C[C@H]4C3)nc21` (racemic) [Compound 6], the negative logarithm of the EC50 (pEC50) is over 5.00.

Take `FC(F)Cn1ncc2ncc(N3C[C@H]4CCN(c5ccc(C(F)(F)F)cn5)C[C@H]4C3)nc21` (racemic) [Compound 18]: the pEC50 is 4.30 to 5.00.

Compound `FC(F)Cn1ncc2ncc(NC3C[C@@H]4CN(c5ncccc5C(F)(F)F)C[C@@H]4C3)nc21` (stereo partly drawn) [Compound 41, (3aR,5S,6aS)—N-[1-(2,2-difluoroethyl)-1H-pyrazolo[3,4-b]pyrazin-6-yl]-2-[3-(trifluoromethyl)pyridin-2-yl]-octahydrocyclopenta[c]pyrrol-5-amine] had a pEC50 of under 4.00.

In turn, `FC(F)Cn1ncc2ncc(N[C@@H]3C[C@@H]4CN(c5ccc(C(F)(F)F)cn5)C[C@@H]4C3)nc21` [Compound 51, (3aR,5S,6aS)—N-[1-(2,2-difluoroethyl)-1H-pyrazolo[3,4-b]pyrazin-6-yl]-2-[5-(trifluoromethyl)pyridin-2-yl]-octahydrocyclopenta[c]pyrrol-5-amine] gave a pEC50 of over 5.00.

The compound `FC(F)Cn1ncc2ncc(N3CC[C@H]4CN(c5ccc(C(F)(F)F)cn5)C[C@@H]4C3)nc21` [Compound 69, 1-(2,2-difluoroethyl)-6-((3aS,7aR)-2-(5-(trifluoromethyl)pyridin-2-yl)octahydro-5H-pyrrolo[3,4-c]pyridin-5-yl)-1H-pyrazolo[3,4-b]pyrazine] had a pEC50 of 4.30 to 5.00.

For the compound `FC(F)(F)c1ccnc(N2C[C@H]3CCN(c4cncc(-c5nncs5)n4)C[C@H]3C2)c1` (racemic) [Compound 19, rac-2-[(3aR,7aS)-2-[4-(trifluoromethyl)pyridin-2-yl]-octahydro-1H-pyrrolo[3,4-c]pyridin-5-yl]-6-(1,3,4-thiadiazol-2-yl)pyrazine], the pEC50 is under 4.00.

In turn, `FC(F)Cn1ncc2ncc(-n3ncc4c3CCN(c3ncccc3C(F)(F)F)C4)nc21` [Compound 64, 1-(2,2-difluoroethyl)-6-(5-(3-(trifluoromethyl)pyridin-2-yl)-4,5,6,7-tetrahydro-1H-pyrazolo[4,3-c]pyridin-1-yl)-1H-pyrazolo[3,4-b]pyrazine] gave a pEC50 of 4.30 to 5.00.
